Source: patent US7169792B2, “Method of treating bacterial infections using gemifloxacin or a salt thereof and a β-lactam antibiotic” (priority 2002, dated 2007)

How the values were obtained:
[1] = system: E. coli ATCC 25922; experiment: checkerboard titration, gemifloxacin and cefaclor (MIC, FIC); type: cell-based, Escherichia coli
Description: (§1) Checkerboard microtitre broth dilution plates were prepared using the Hamilton MicroLab AT Plus system (Reno, Nev.). Two-fold serial dilutions (50 μl) of cefotaxime were made in columns 1 through 11 of a microtitre plate. Two-fold serial dilutions of gemifloxacin were prepared manually and the MicroLab AT Plus was used to dispense 25 μl of gemifloxacin at each concentration into rows A through G of the microtitre plate. The concentration range tested varied for each drug/organism combination to encompass the MIC endpoints of the individual components. Column 12 contained two fold serial dilutions of gemifloxacin only, and row H contained two fold serial dilutions of cefotaxie only. The last well (H) in column 12 was used as a positive growth control well, containing only medium and test isolate.
(§2) The bacteria were diluted to a 0.5 McFarland standard and then further diluted 1/50. Each well was inoculated with 25 μl of the isolate to give a final inoculum density of approximately 5×10^5 cfu/ml. The MicroLab AT Plus 2 was used to add the inoculum to the microtitre plates. After inoculation, the plates were covered with a 96 well microtitre plate lid and incubated at 35° C. in ambient air for 20–24 hours. A 10 μl aliquot of the inoculum was plated on trypticase soy agar containing 5% sheep blood to determine the purity of the final test inoculum.
(§3) Following incubation, a microtitre mirror reader (Cooke Instruments Ltd., England) was used to assist in determining the microdilution MIC endpoints. The MIC was determined as the lowest concentration of compound that inhibited visible growth of the organism.
(§4) The Fractional Inhibitory Concentrations (FICs) were calculated using the following formula: (A)/(MICA)+(B)/(MICB)=FICA+FICB=FICIndex wherein: • A is the MIC of drug A in the presence of drug B • B is the MIC of drug B in the presence of drug A • MIC A is the MIC of the organism to drug A alone • MIC B is the MIC of the organism to drug B alone • FIC A is the fractional inhibitory concentration of drug A • FIC B is the fractional inhibitory concentration of drug B
(§5) The FIC indices were interpreted using the following criteria: • ≦0.5=Synergy • >0.5–1=Additive • >1–2=Indifference • >2=Antagonism
3) E. coli ATCC 25922 was obtained from the SmithKline Beecham Anti-Infectives Research Culture Collection and stored at −80° C. in 10% glycerol. Before testing, the isolate was passaged onto agar plates (trypticase soy agar containing 5% sheeps blood) from the frozen stock for two consecutive days. […]
The combined effect of gemifloxacin and cefaclor was investigated in E. coli ATCC 25922 by using the checkerboard titration method described in Example 1. FIC Indices were calculated and interpreted as in Example 1.

[2] = system: E. faecalis ATCC 29212; experiment: checkerboard titration, gemifloxacin and cefotaxime (MIC, FIC); type: cell-based, Enterococcus faecalis
Description: 1) The combined effect of gemifloxacin and cefotaxime was investigated in E. faecalis by using a checkerboard titration method. Evaluation for synergistic activity was carried out by calculation of fractional inhibitory concentrations (FICs) according to the method of Eliopoulos et al (1996, Antimicrobial Combinations, Antibiotics in Laboratory Medicine, Victor Lorian, 4th Edition, pp 337–338, Baltimore, Md., Williams and Wilkins).
E. faecalis ATCC 29212 was obtained from the SmithKline Beecham Anti-Infectives Research Culture Collection and stored at −80° C. in 10% glycerol. Before testing, the isolate was passaged onto agar plates (trypticase soy agar containing 5% sheeps blood) from the frozen stock for two consecutive days. Cation adjusted Mueller Hinton broth (BBL, Cockeysville, Md.) was used for the isolate.
as §1, §2, §3, §4, §5

[3] = drug alone, no unit in this line (other lines μg/ml)

With `CO/N=C1\CN(c2nc3c(cc2F)c(=O)c(C(=O)O)cn3C2CC2)CC1CN` (racemic) [gemifloxacin, (R,S)-7-(3-aminomethyl-4-methoxyiminopyrrolidin-1-yl)-1-cyclopropyl-6-fluoro-4-oxo-1,4-dihydro-1,8-naphthyridine-3-carboxylic acid] the MIC ([1]; Escherichia coli, ATCC25922, in presence of cefaclor 1 μg/ml, read-out: gemifloxacin MIC) was 2 ng/mL, the “gemifloxacin MIC” value [1, 3] was 0.008 and the MIC ([2]; Enterococcus faecalis, ATCC29212, in presence of cefotaxime 64 μg/ml, read-out: gemifloxacin MIC) was 8 ng/mL. The “gemifloxacin MIC” value [2, 3] was 0.03, the “gemifloxacin MIC” value ([2]; in presence of cefotaxime 16 μg/ml) was 0.008 µg/mL and the “gemifloxacin MIC” value ([2]; in presence of cefotaxime 32 μg/ml) was 0.008 µg/mL.
